According to paper PMC6269719, “Extraction of Antioxidant Components from Bidens pilosa Flowers and Their Uptake by Human Intestinal Caco-2 Cells” (Molecules, 2013):

Assays:
Caco-2 cells = assay: Bidirectional transport across Caco-2 cell monolayers; details: pH 7.4, up to 60 min; for Papp, apical to basolateral flux: A→B, compounds tested within EM 1 mg/mL, mannitol 50 μM, 14-day monolayers
Procedure: (§1) To investigate the intestinal absorption and transport properties of the three DiCQAs and three PGAs, 14-day cultured Caco-2 monolayer cells were used for the bidirectional transport study.
(§2) It was cultured in Dulbecco’s Modified Eagle Medium (DMEM medium, Hyclone, Logan, UT, USA) containing high glucose (4.5 g/L) plus 10% fetal bovine serum (Biological Industries, Beit Haemek, Israel), 1% L-glutamine and 1% penicillin-streptomycin (Hyclone) at 37 °C, 5% CO2 with constant humidity controlled environment. The medium was replaced three times a week during cell growth and differentiation. Cells used in this study were between passages 25 and 40.
(§3) After the cells in the flask grew to 90%–100% confluency, cells were trypsinized and seeded on 12 mm transwells with 0.4 µm pore polyester membrane insert (product #3460, Corning Inc., Corning, NY, USA) at a density 2 × 10^5 cells/mL. Culture medium (0.5 mL and 1.5 mL, respectively) was added into the space between the transwell and the plate. The culture was incubated at 37 °C under 5% CO2 atmosphere and the medium was changed fresh every 48 h. The transepithelial electrical resistance (TEER) was measured with Millicell-ERS epithelial Voltohmmeter (Millipore, Bedford, MA, USA), which was reflected to the tightness of intercellular junctions and only cells with TEER (in Ω/cm^2) >300 Ω/cm^2 (at 14 day) were used for permeability study.
(§4) Before conducting the permeation test, the trasnswell insert was emerged and rinsed in 25 mM HEPES (pH 7.4 Hank’s Balanced Salt Solution, HBSS) and rinsed twice at 37 °C under 5% CO2 atmosphere, each time for 30 min. The paracellular marker molecule mannitol (low permeability), propranolol (highly permeability), and EM fraction (1 mg/mL) were separately dissolved in DMSO and diluted with HBSS to final concentrations of 50 μM, 10 μM, and 1 mg/mL (at non-cytotoxic concentration), respectively. The solutions were respectively transferred into the apical and basolateral zones of the transwell insert with the other side filled up with HBSS. The same pH (7.4) was used both in apical-to-basolateral (A→B) and basolateral-to-apical (B→A) transport directions during each experiment. The whole apparatus was incubated at 37 °C under 5% CO2 atmosphere and the permeation was examined at time point 5, 15, 30, and 60 min, respectively. Permeates obtained from various direction were analyzed with HPLC and LC-MS according to the aforementioned method. The apparent permeability coefficients (Papp, cm/s) and the efflux ratio were calculated according to the literature: Papp = (V/A × C0) × (dQ/dt) where V is the volume of receiver part (0.5 mL and/or 1.5 mL).
(§5) A is the surface area of the cell monolayer (1.1 cm^2).
(§6) C0 is the initial concentration of the extract (1 mg/mL).
(§7) dQ/dt is the cumulative transport rate (mg/mL/min). Efflux ratio = Papp,B→A/Papp,A→B

[1] = as above; details: human, Caco-2, pH 7.4
Procedure: as §1, §2, §3, §4, §5, §6, §7

db/db mice = test system: db/db mice; parameters: method as in doi:10.1016/j.jfca.2010.03.025; details: i.p., compared to the other two polyacetylenic glucosides; cited from earlier work

Question: Which “Papp, apical to basolateral flux” value (Caco-2 cells) does the source give for O=C(/C=C/c1ccc(O)c(O)c1)O[C@@H]1[C@@H](OC(=O)/C=C/c2ccc(O)c(O)c2)C[C@@](O)(C(=O)O)C[C@@H]1O [DiCQA 1, 3,4-di-O-caffeoylquinic acid] here?
Answer: higher than the paracellular transport marker mannitol

Question: For O=C(/C=C/c1ccc(O)c(O)c1)O[C@H]1[C@H](O)C[C@](O)(C(=O)O)C[C@H]1OC(=O)/C=C/c1ccc(O)c(O)c1 [DiCQA 3, 4,5-di-O-caffeoylquinic acid], which “Papp, apical to basolateral flux” value (Caco-2 cells) is on record?
Answer: higher than the paracellular transport marker mannitol

Question: For CC#CC#CC#C/C=C/CCC(CO)O[C@@H]1O[C@H](CO)[C@@H](O)[C@H](O)[C@H]1O (stereo partly drawn) [PGA 4, 2-β-D-glucopyranosyloxy-1-hydroxy-5(E)-tridecene-7,9,11-triyne], which efflux ratio at 60 min, 1 mg/mL [1] is on record?
Answer: 32.1

Question: And the “Papp, apical to basolateral flux” value (Caco-2 cells)?
Answer: higher than the paracellular transport marker mannitol

Question: What does the source list for CC#CC#CC#CC#CCCC(CO)O[C@@H]1O[C@H](CO)[C@@H](O)[C@H](O)[C@H]1O (stereo partly drawn) [PGA 5, 2-β-D-glucopyranosyloxy-1-hydroxytrideca-5,7,9,11-tetrayne]?
Answer: Papp, apical to basolateral flux (Caco-2 cells): lower than the Papp for mannitol; Papp, basolateral to apical flux (Caco-2 cells; B→A, compound within EM 1 mg/mL): closed to that of propranolol; Increasing serum insulin, reducing blood glucose levels and glycosylated HbA1c levels (db/db mice): most effective compound

Question: With CC#CC#CC#C/C=C/CCC(CCO)O[C@@H]1O[C@H](CO)[C@@H](O)[C@H](O)[C@H]1O (stereo partly drawn) [PGA 6, 3-β-D-glucopyranosyloxy-1-hydroxy-6(E)-tetradecene-8,10,12-triyne] as the molecule, how does the efflux ratio at 60 min, 1 mg/mL [1] read?
Answer: 6.03

Question: And the “Papp, apical to basolateral flux” value (Caco-2 cells)?
Answer: higher than the paracellular transport marker mannitol

Question: For OC[C@@H](O)[C@@H](O)[C@H](O)[C@H](O)CO [mannitol, reference compound], which Papp A→B at 60 min, 50 μM [1] is on record?
Answer: 0.43 ± 0.1 ×10⁻⁶ cm/s

Question: For CC(C)NCC(O)COc1cccc2ccccc12 (centres unmarked) [propranolol, reference compound], which Papp at 60 min, 10 μM [1] is on record?
Answer: 39.4 ± 4.12 ×10⁻⁶ cm/s
